Laboratory results taken from the supplement of paper PMC10627819.

Tests used:
S. pneumoniae D39V [1] = test: fitness (endpoint OD595 vs no drug) (fraction); higher = more growth
In short: (§1)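 Fitness was measured as bacterial growth in 384-well plates inoculated at OD595 0.01 (30 µl, or 55 µl for S. pneumoniae). Media were TSB, LB Lennox or CY, at 37 °C. OD595 was read every 30 min for 14 h and background-subtracted against the first reading. Fitness is OD595 at the transition into stationary phase divided by the robust mean of no-drug control wells, capped at 1.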

S. aureus DSM 20231 [2] = test: as above
In short: as §1

S. aureus Newman [3] = test: as above
In short: as §1

B. subtilis 168 [4] = test: as above
In short: as §1

S. pneumoniae D39V [5] = test: Bliss interaction score (quartile over a dose matrix) (fitness difference); higher = more antagonism (negative = synergy)
In short: (§2)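 Values were capped at 1 after dividing OD595 at stationary-phase entry by the plate's robust no-drug mean. This ratio is fitness, and single-drug fitness was inferred from the combination data. The Bliss score is observed minus product-expected fitness, given as quartiles over technical, biological and donor/recipient replicates.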

S. aureus DSM 20231 [6] = test: as above
In short: as §2

S. aureus Newman [7] = test: as above
In short: as §2

B. subtilis 168 [8] = test: as above
In short: as §2
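For Bliss interaction score (quartile over a dose matrix) in this document: first quartile when negative (synergy) and third quartile when positive (antagonism).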

CCCCCCCCCC(=O)N[C@@H](Cc1c[nH]c2ccccc12)C(=O)N[C@H](CC(N)=O)C(=O)N[C@@H](CC(=O)O)C(=O)N[C@@H]1C(=O)NCC(=O)N[C@@H](CCCN)C(=O)N[C@@H](CC(=O)O)C(=O)N[C@H](C)C(=O)N[C@@H](CC(=O)O)C(=O)NCC(=O)N[C@H](CO)C(=O)N[C@@H]([C@H](C)CC(=O)O)C(=O)N[C@@H](CC(=O)c2ccccc2N)C(=O)O[C@@H]1C [Daptomycin] + COc1c(N2C[C@@H]3CCCN[C@@H]3C2)c(F)cc2c(=O)c(C(=O)O)cn(C3CC3)c12 [Moxifloxacin]
Conditions | fitness
B. subtilis 168 [4], first compound 0.125 µg/mL, partner 0.0312 µg/mL | 0.0461
B. subtilis 168 [4], first compound 0.125 µg/mL, partner 0.0625 µg/mL | 0.0437
B. subtilis 168 [4], first compound 0.125 µg/mL, partner 0.125 µg/mL | 0.0394
B. subtilis 168 [4], first compound 0.125 µg/mL, partner 2 µg/mL | 0.0342
B. subtilis 168 [4], first compound 0.125 µg/mL, partner 4 µg/mL | 0.0583
B. subtilis 168 [4], first compound 0.125 µg/mL, partner 8 µg/mL | 0.0431
B. subtilis 168 [4], first compound 0.25 µg/mL, partner 0.0312 µg/mL | 0.0537
B. subtilis 168 [4], first compound 0.25 µg/mL, partner 0.0625 µg/mL | 0.0246
B. subtilis 168 [4], first compound 0.25 µg/mL, partner 0.125 µg/mL | 0.019
B. subtilis 168 [4], first compound 0.25 µg/mL, partner 2 µg/mL | 0.0893
B. subtilis 168 [4], first compound 0.25 µg/mL, partner 4 µg/mL | 0.0796
B. subtilis 168 [4], first compound 0.25 µg/mL, partner 8 µg/mL | 0.124
B. subtilis 168 [4], first compound 0.5 µg/mL, partner 0.0312 µg/mL | 0.0547
B. subtilis 168 [4], first compound 0.5 µg/mL, partner 0.0625 µg/mL | 0.026
B. subtilis 168 [4], first compound 0.5 µg/mL, partner 0.125 µg/mL | 0.0309
B. subtilis 168 [4], first compound 0.5 µg/mL, partner 2 µg/mL | 0.0708
B. subtilis 168 [4], first compound 0.5 µg/mL, partner 4 µg/mL | 0.044
B. subtilis 168 [4], first compound 0.5 µg/mL, partner 8 µg/mL | 0.0672
S. aureus DSM 20231 [2], first compound 0.5 µg/mL, partner 0.0075 µg/mL | 0.776
S. aureus DSM 20231 [2], first compound 0.5 µg/mL, partner 0.015 µg/mL | 0.754
S. aureus DSM 20231 [2], first compound 0.5 µg/mL, partner 0.03 µg/mL | 0.673
S. aureus DSM 20231 [2], first compound 1 µg/mL, partner 0.0075 µg/mL | 0.837
S. aureus DSM 20231 [2], first compound 1 µg/mL, partner 0.015 µg/mL | 0.786
S. aureus DSM 20231 [2], first compound 1 µg/mL, partner 0.03 µg/mL | 0.696
S. aureus DSM 20231 [2], first compound 2 µg/mL, partner 0.0075 µg/mL | 0.761
S. aureus DSM 20231 [2], first compound 2 µg/mL, partner 0.015 µg/mL | 0.749
S. aureus DSM 20231 [2], first compound 2 µg/mL, partner 0.03 µg/mL | 0.655
S. aureus Newman [3], first compound 0.125 µg/mL, partner 0.0075 µg/mL | 0.751
S. aureus Newman [3], first compound 0.25 µg/mL, partner 0.0075 µg/mL | 0.744
S. aureus Newman [3], first compound 0.25 µg/mL, partner 0.015 µg/mL | 0.636
S. aureus Newman [3], first compound 0.5 µg/mL, partner 0.0075 µg/mL | 0.774
S. pneumoniae D39V [1], first compound 1 µg/mL, partner 0.005 µg/mL | 0.947
S. pneumoniae D39V [1], first compound 1 µg/mL, partner 0.01 µg/mL | 0.965
S. pneumoniae D39V [1], first compound 1 µg/mL, partner 0.02 µg/mL | 0.846
S. pneumoniae D39V [1], first compound 1 µg/mL, partner 0.0312 µg/mL | 0.0587
S. pneumoniae D39V [1], first compound 1 µg/mL, partner 0.0625 µg/mL | 0.0444
S. pneumoniae D39V [1], first compound 1 µg/mL, partner 0.125 µg/mL | 0.0384
S. pneumoniae D39V [1], first compound 2 µg/mL, partner 0.005 µg/mL | 0.946
S. pneumoniae D39V [1], first compound 2 µg/mL, partner 0.01 µg/mL | 0.951
S. pneumoniae D39V [1], first compound 2 µg/mL, partner 0.02 µg/mL | 0.826
S. pneumoniae D39V [1], first compound 2 µg/mL, partner 0.0312 µg/mL | 0.0617
S. pneumoniae D39V [1], first compound 2 µg/mL, partner 0.0625 µg/mL | 0.0424
S. pneumoniae D39V [1], first compound 2 µg/mL, partner 0.125 µg/mL | 0.0433
S. pneumoniae D39V [1], first compound 4 µg/mL, partner 0.005 µg/mL | 0.95
S. pneumoniae D39V [1], first compound 4 µg/mL, partner 0.01 µg/mL | 0.988
S. pneumoniae D39V [1], first compound 4 µg/mL, partner 0.02 µg/mL | 0.885
S. pneumoniae D39V [1], first compound 4 µg/mL, partner 0.0312 µg/mL | 0.0587
S. pneumoniae D39V [1], first compound 4 µg/mL, partner 0.0625 µg/mL | 0.0393
S. pneumoniae D39V [1], first compound 4 µg/mL, partner 0.125 µg/mL | 0.0263

fitness, one replicate
Conditions | first compound 0.5 µg/mL | first compound 1 µg/mL | first compound 2 µg/mL
B. subtilis 168 [4], partner 0.0312 µg/mL | – | 0.0152 | –
B. subtilis 168 [4], partner 0.0625 µg/mL | – | 0.0268 | –
B. subtilis 168 [4], partner 0.125 µg/mL | – | 0.0146 | –
S. aureus DSM 20231 [2], partner 0.06 µg/mL | 0.667 | 0.654 | 0.637
S. aureus DSM 20231 [2], partner 0.12 µg/mL | 0.49 | 0.46 | 0.46

Conditions | Bliss interaction score
B. subtilis 168 [8] | -0.0294
S. aureus DSM 20231 [6] | -0.0667
S. aureus Newman [7] | 0.0375
S. pneumoniae D39V [5] | -0.0679

CCCCCCCCCC(=O)N[C@@H](Cc1c[nH]c2ccccc12)C(=O)N[C@H](CC(N)=O)C(=O)N[C@@H](CC(=O)O)C(=O)N[C@@H]1C(=O)NCC(=O)N[C@@H](CCCN)C(=O)N[C@@H](CC(=O)O)C(=O)N[C@H](C)C(=O)N[C@@H](CC(=O)O)C(=O)NCC(=O)N[C@H](CO)C(=O)N[C@@H]([C@H](C)CC(=O)O)C(=O)N[C@@H](CC(=O)c2ccccc2N)C(=O)O[C@@H]1C [Daptomycin] + COc1ccc(C[C@H](N)C(=O)N[C@H]2[C@@H](O)[C@H](n3cnc4c(N(C)C)ncnc43)O[C@@H]2CO)cc1 [Puromycin]
fitness
Conditions | first compound 0.125 µg/mL | first compound 0.25 µg/mL | first compound 0.5 µg/mL | first compound 1 µg/mL | first compound 2 µg/mL | first compound 4 µg/mL
B. subtilis 168 [4], partner 0.39 µg/mL | 0.937 | 0.932 | 0.894 | – | – | –
B. subtilis 168 [4], partner 0.78 µg/mL | 0.912 | 0.91 | 0.864 | – | – | –
B. subtilis 168 [4], partner 1.56 µg/mL | 0.906 | 0.916 | 0.841 | – | – | –
S. aureus DSM 20231 [2], partner 0.39 µg/mL | – | – | 0.993 | ≥ 1 | ≥ 1 | –
S. aureus DSM 20231 [2], partner 0.78 µg/mL | – | – | ≥ 1 | 0.977 | ≥ 1 | –
S. aureus DSM 20231 [2], partner 1.56 µg/mL | 0.953 | ≥ 1 | ≥ 1 | 0.989 | 0.957 | –
S. aureus Newman [3], partner 0.39 µg/mL | 0.998 | 1 | 0.997 | – | – | –
S. aureus Newman [3], partner 0.78 µg/mL | 0.992 | 0.989 | 0.995 | – | – | –
S. aureus Newman [3], partner 1.56 µg/mL | ≥ 1 | 0.983 | ≥ 1 | – | – | –
S. pneumoniae D39V [1], partner 1 µg/mL | – | – | – | 0.939 | 0.969 | 0.922
S. pneumoniae D39V [1], partner 2 µg/mL | – | – | – | 0.892 | 0.876 | 0.909
S. pneumoniae D39V [1], partner 4 µg/mL | – | – | – | 0.32 | – | –

fitness, one replicate
Conditions | partner 0.39 µg/mL | partner 0.78 µg/mL | partner 1.56 µg/mL | partner 3.12 µg/mL | partner 6.24 µg/mL
B. subtilis 168 [4], first compound 1 µg/mL | 0.719 | 0.737 | 0.749 | – | –
S. aureus DSM 20231 [2], first compound 0.125 µg/mL | 0.935 | ≥ 1 | – | 0.968 | 0.865
S. aureus DSM 20231 [2], first compound 0.25 µg/mL | ≥ 1 | ≥ 1 | – | 0.932 | 0.81
S. aureus DSM 20231 [2], first compound 0.5 µg/mL | – | – | – | 0.962 | 0.762

Conditions | Bliss interaction score
B. subtilis 168 [8] | 0.0496
S. aureus DSM 20231 [6] | 0.0803
S. aureus Newman [7] | 0.0477
S. pneumoniae D39V [5] | -0.0975
